Patent US20100029682A1, “NOVEL CHROMENE AND THIOCHROMENE CARBOXAMIDE DERIVATIVES, METHODS FOR PREPARING SAME AND THERAPEUTIC APPLICATIONS OF SAME” (priority 2006, published 2010)
Structures can show the parent of a compound that is named as a salt.

Key:
dopamine D3 receptor = target: T1, dopamine D3 receptor (Homo sapiens, UniProt P35462); assay: inhibition of spiperone[3H] binding in CHO cells, dopamine D3 receptor; settings: read-out: pKi D3 (converted)
T1 construct: expressed in transfected cells
T1 sequence (P35462 whole entry): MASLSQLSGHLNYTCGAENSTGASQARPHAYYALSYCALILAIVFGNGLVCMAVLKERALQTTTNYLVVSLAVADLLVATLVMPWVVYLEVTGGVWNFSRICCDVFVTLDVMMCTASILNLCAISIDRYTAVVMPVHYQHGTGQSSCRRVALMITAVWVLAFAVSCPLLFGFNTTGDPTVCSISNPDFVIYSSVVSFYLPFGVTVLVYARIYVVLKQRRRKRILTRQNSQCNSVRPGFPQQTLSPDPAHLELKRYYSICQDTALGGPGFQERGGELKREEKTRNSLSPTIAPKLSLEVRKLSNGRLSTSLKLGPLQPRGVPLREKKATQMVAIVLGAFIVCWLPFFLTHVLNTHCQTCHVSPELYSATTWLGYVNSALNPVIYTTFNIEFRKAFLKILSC
Procedure: (§1) The activity of derivatives of formula 1 as DRD3 ligands, modulators of the activity of DRD3 according to the invention, was evaluated on cells expressing human recombinant DRD3. […] These same compounds show an apparent affinity for the dopamine D2 receptor that is 100 to 500 times weaker. These same compounds have an affinity for the α1 adrenergic receptor that is 20 to 500 times weaker than that for the D3 receptor. The compounds of formula 1 are either antagonists (intrinsic activity<0.10), partial agonists (0.2<intrinsic activity<0.6) or full agonists (intrinsic activity>0.8). The biological results relative to certain compounds of formula 1 are presented in table 2 at the end of the description.

α1-adrenergic receptor = assay: inhibition of prazocine[3H] binding in rat brain tissue
Procedure: as §1

dopamine D2 receptor = target: T2, dopamine D2 receptor (Homo sapiens, UniProt P14416); assay: inhibition of spiperone[3H] binding in CHO cells, dopamine D2 receptor; settings: read-out: pKi D2 (converted)
T2 construct: expressed in transfected cells
T2 sequence (P14416 whole entry, species assumed): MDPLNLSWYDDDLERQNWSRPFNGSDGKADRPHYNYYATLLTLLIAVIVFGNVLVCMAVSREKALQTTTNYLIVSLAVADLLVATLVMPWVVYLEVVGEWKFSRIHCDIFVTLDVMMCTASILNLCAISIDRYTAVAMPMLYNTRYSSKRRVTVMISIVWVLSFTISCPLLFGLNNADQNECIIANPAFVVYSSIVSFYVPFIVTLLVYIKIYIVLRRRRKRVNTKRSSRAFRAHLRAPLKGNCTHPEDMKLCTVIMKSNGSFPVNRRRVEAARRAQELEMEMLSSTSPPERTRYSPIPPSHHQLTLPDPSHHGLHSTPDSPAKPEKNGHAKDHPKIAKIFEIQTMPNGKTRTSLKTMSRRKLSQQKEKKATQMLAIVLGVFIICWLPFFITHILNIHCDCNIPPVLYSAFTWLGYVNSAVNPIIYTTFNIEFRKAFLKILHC
Procedure: as §1

human recombinant DRD3 = target: T3, human recombinant DRD3 (Homo sapiens, UniProt P35462); assay: intrinsic activity on cells expressing human recombinant DRD3; format: cell-based; settings: antagonists <0.10, partial agonists 0.2-0.6, full agonists >0.8
T3 construct: expressed in transfected cells
T3 sequence (P35462 whole entry): as the sequence (P35462 whole entry) above
Description: As used above, the term “D3 receptor partial agonist” denotes a compound that forms a complex with DRD3 and that acts as a combined agonist-antagonist, i.e., it induces a physiological response whose intensity is less than that of the natural mediator, dopamine. In vitro, in a cell expressing DRD3, a DRD3 partial agonist produced an active response whose maximum intensity was lower than that produced by dopamine or a by a full agonist, for example quinpirole[(4aR-trans)-4,4a,5,6,7,8,8a,9 octahydro-5-propyl-1H (or 2H)-pyrazolo(3,4-g)quinoline]. A DRD3 partial agonist can also partially prevent the response produced by dopamine or by its full agonists. In vivo, a DRD3 partial agonist produces dopaminergic responses, particularly when dopamine levels are lowered, as is the case with rats with lesions caused by 6-hydroxydopamine or monkeys injected with 1 methyl-4-phenyl-1,2,3,6-tetrahydropyridine (MPTP). Moreover, a DRD3 partial agonist can act as an antagonist in vivo, particularly when DRD3 is subject to sustained dopamine stimulation.
as §1

SMILES | melting point | Ki (dopamine D3 receptor) | pKi α1 (α1-adrenergic receptor) | Ki (dopamine D2 receptor) | Intrinsic activity (human recombinant DRD3)
N#Cc1cccc(N2CCN(CCCCNC(=O)C3=Cc4ccccc4OC3)CC2)c1 (as salt: hydrochloride) [Example 14, 2H-Chromene-3-carboxylic acid {4-[4-(3-cyanophenyl)-piperazin-1-yl]-1-butyl}-amide] | 229 °C |  |  |  | 
CCOC(=O)c1cccc(N2CCN(CCCCNC(=O)C3=Cc4ccccc4OC3)CC2)c1 (as salt: hydrochloride) [Example 21, 3-(4-{4-[(2H-Chromene-3-carbonyl)-amino]-butyl}-piperazin-1-yl)-benzoic acid ethyl ester hydrochloride] | 229 °C |  |  |  | 
CCOC(=O)c1ccc(N2CCN(CCCCNC(=O)C3=Cc4ccccc4OC3)CC2)cc1 (as salt: hydrochloride) [Example 22, 4-(4-{4-[(2H-Chromene-3-carbonyl)-amino]-butyl}-piperazin-1-yl)-benzoic acid ethyl ester hydrochloride] | 237 °C |  |  |  | 
COc1cc(OC)cc(N2CCN(CCCCNC(=O)C3=Cc4ccccc4OC3)CC2)c1 (as salt: hydrochloride) [Example 23, 2H-Chromene 3 carboxylic acid {4-[4-(3,5-dimethoxyphenyl)piperazin-1-yl]-butyl}-amide hydrochloride] | 213 °C |  |  |  | 
O=C(NCCCCN1CCN(c2cccc(Cl)c2Cl)CC1)C1=Cc2cc(Cl)ccc2OC1 (as salt: hydrochloride) [Example 28, 6-Chloro-2H-Chromene-3-carboxylic acid {4-[4-(2,3-dichlorophenyl)-piperazin-1-yl]-butyl}-amide] | 214 °C |  |  |  | 
COc1ccc(Br)c2c1OCC(C(=O)NCCCCN1CCN(c3ccccc3F)CC1)=C2 (as salt: hydrochloride) [Example 49, 5-Bromo-8-methoxy-2H-chromene-3-carboxylic acid {4-[4 (2-fluorophenyl)-piperazin-1-yl]-butyl}-amide hydrochloride] | 157 °C |  |  |  | 
O=C(NCCCCN1CCN(c2cccc(Cl)c2Cl)CC1)C1=Cc2ccccc2OC1 [Example 2, 2H-Chromene-3-carboxylic acid {4-[4-(2,3-dichlorophenyl)-piperazin-1-yl]-butyl}-amide] |  | 0.813 nM | 7.29 | 123 nM | 
O=C(NCCCCN1CCN(c2cccc(C(F)(F)F)c2)CC1)C1=Cc2ccccc2OC1 [Example 16, 2H-Chromene-3-carboxylic acid {4-[4-(3-trifluoromethylphenyl)-piperazin-1-yl]-butyl}-amide] |  | 2.69 nM | 7.55 | 447 nM | 
N#Cc1cccc(N2CCN(CCCCNC(=O)C3=Cc4ccccc4SC3)CC2)c1 [Example 35, 2H-Thiochromene-3-carboxylic acid {4-[4-(3-cyanophenyl)-piperazin-1-yl]-butyl}-amide] |  | 2.4 nM | 7.32 | 3160 nM | 0.18
O=C(NCCCCN1CCN(c2cccc(O)c2)CC1)C1=Cc2ccccc2SC1 [Example 41, 2H-Thiochromene-3-carboxylic acid {4-[4-(3-hydroxyphenyl)-piperazin-1-yl]-butyl}-amide] |  | 0.661 nM | 7.08 | 3800 nM | 0.64
COc1ccc2c(c1)C=C(C(=O)NCCCCN1CCN(c3ccccc3OC)CC1)CO2 [Example 54, 6-Methoxy-2H-chromene-3-carboxylic acid {4-[4-(2-methoxyphenyl)piperazin-1-yl]-butyl}-amide] |  | 0.537 nM | 8.05 | 417 nM | 
COc1ccc2c(c1)C=C(C(=O)NCCCCN1CCN(c3cccc(Cl)c3Cl)CC1)CO2 [Example 55, 6-Methoxy-2H-chromene-3-carboxylic acid {4-[4-(2,3-dichlorophenyl)-piperazin-1-yl]-butyl}-amide] |  | 0.794 nM |  | 251 nM | 
CS(=O)(=O)Nc1cccc(N2CCN(CCCCNC(=O)C3=Cc4cc(Cl)ccc4OC3)CC2)c1 [Example 89, 6-chloro-2H-chromene-3-carboxylic acid {4-[4-(3-mesylamino-phenyl}-piperazin-1-yl]-butyl}-amide] |  | 0.219 nM | 6.78 | 34.7 nM | 0
O=C(NCCCCN1CCN(c2cccc3[nH]ccc23)CC1)C1=Cc2ccccc2OC1 [Example 102, 2H-chromene-3-carboxylic acid {4-[4-(1H-indol-4-yl)-piperazin-1-yl]-butyl}-amide] |  | 0.219 nM | 8.05 | 93.3 nM | 0.59
O=C(NCCCCN1CCN(c2cccc3c2OCCO3)CC1)C1=Cc2ccccc2OC1 [Example 105, 2H-chromene-3-carboxylic acid {4-[4-(2,3-dihydro-benzo[1,4]dioxin-5-yl)-piperazin-1-yl]-butyl}-amide] |  | 0.603 nM | 7.81 | 132 nM | 
O=C(NCCCCN1CCN(c2cccc3[nH]c(=O)oc23)CC1)C1=Cc2ccccc2OC1 [Example 110, 2H-chromene-3-carboxylic acid {4-[4-(2-oxo-2,3-dihydro-benzoxazol-7-yl)-piperazin-1-yl]-butyl}-amide] |  | 0.0676 nM | 8.44 | 7.59 nM | 0.81
O=C(NCCCCN1CCN(c2cccc3c2OCC3)CC1)C1=Cc2ccccc2OC1 [Example 111, 2H-chromene-3-carboxylic acid {4-[4-(2,3-dihydro-benzofuran-7-yl)-piperazin-1-yl]-butyl} amide] |  | 0.676 nM | 7.84 | 141 nM | 0.26
